Four compounds from the NIST ThermoML archive (doi:10.1016/j.fluid.2013.01.015) can be followed below.

± gives the expanded uncertainty stated by the source.

The conditions of data set [1]: 298.15 K; 101.33 kPa; Liquid; Vibrating tube method.
A short description of data set [2]: refractive index (Na D-line) (dimensionless). The following applies: 298.15 K; 101.33 kPa; Liquid; Standard Abbe refractometry.

The mass density is mass per unit of volume. What is called refractive index is the speed of light in vacuum divided by its phase velocity in the sample.

As for `Cc1ccccc1C` [1,2-dimethylbenzene], the mass density in data set [1] is listed as 859.54 ± 0.14 kg/m3. The refractive index in data set [2] turned out to be 1.49466 ± 0.00072.

Take `Cc1cccc(C)c1` [1,3-dimethylbenzene]: the mass density in data set [1] stood at 859.95 ± 0.14 kg/m3. For the same compound, in data set [2], the refractive index amounted to 1.49464 ± 0.00072.

`Cc1ccc(C)cc1` [1,4-dimethylbenzene]: in data set [1], the mass density is given as 856.71 ± 0.14 kg/m3. In addition, the refractive index in data set [2] came to 1.4958 ± 0.0007.

For the compound `CCCCCCCC` [octane], the mass density in data set [1] is 698.61 ± 0.17 kg/m3. Also, in data set [2], the refractive index worked out at 1.3951 ± 0.0007.
